Assays:
Assay in all cases: KINOMEscan competition binding
Conditions in all cases: compound 10.0 µM
AKT1 (human) = AKT1 (human) (UniProt P31749)
CAMK1D (human) = CAMK1D (human) (UniProt Q8IU85)
CDK17 (human) = CDK17 (human) (UniProt Q00537)
CSF1R (human) = CSF1R (human) (UniProt P07333)
CSNK2A1 (human) = CSNK2A1 (human) (UniProt P68400)
CSNK2A2 (human) = CSNK2A2 (human) (UniProt P19784)
EPHA8 (human) = EPHA8 (human) (UniProt P29322)
EPHB1 (human) = EPHB1 (human) (UniProt P54762)
EPHB4 (human) = EPHB4 (human) (UniProt P54760)
FES (human) = FES (human) (UniProt P07332)
FLT1 (human) = FLT1 (human) (UniProt P17948)
Sequence of FLT1 (human) (P17948 whole entry, looked up): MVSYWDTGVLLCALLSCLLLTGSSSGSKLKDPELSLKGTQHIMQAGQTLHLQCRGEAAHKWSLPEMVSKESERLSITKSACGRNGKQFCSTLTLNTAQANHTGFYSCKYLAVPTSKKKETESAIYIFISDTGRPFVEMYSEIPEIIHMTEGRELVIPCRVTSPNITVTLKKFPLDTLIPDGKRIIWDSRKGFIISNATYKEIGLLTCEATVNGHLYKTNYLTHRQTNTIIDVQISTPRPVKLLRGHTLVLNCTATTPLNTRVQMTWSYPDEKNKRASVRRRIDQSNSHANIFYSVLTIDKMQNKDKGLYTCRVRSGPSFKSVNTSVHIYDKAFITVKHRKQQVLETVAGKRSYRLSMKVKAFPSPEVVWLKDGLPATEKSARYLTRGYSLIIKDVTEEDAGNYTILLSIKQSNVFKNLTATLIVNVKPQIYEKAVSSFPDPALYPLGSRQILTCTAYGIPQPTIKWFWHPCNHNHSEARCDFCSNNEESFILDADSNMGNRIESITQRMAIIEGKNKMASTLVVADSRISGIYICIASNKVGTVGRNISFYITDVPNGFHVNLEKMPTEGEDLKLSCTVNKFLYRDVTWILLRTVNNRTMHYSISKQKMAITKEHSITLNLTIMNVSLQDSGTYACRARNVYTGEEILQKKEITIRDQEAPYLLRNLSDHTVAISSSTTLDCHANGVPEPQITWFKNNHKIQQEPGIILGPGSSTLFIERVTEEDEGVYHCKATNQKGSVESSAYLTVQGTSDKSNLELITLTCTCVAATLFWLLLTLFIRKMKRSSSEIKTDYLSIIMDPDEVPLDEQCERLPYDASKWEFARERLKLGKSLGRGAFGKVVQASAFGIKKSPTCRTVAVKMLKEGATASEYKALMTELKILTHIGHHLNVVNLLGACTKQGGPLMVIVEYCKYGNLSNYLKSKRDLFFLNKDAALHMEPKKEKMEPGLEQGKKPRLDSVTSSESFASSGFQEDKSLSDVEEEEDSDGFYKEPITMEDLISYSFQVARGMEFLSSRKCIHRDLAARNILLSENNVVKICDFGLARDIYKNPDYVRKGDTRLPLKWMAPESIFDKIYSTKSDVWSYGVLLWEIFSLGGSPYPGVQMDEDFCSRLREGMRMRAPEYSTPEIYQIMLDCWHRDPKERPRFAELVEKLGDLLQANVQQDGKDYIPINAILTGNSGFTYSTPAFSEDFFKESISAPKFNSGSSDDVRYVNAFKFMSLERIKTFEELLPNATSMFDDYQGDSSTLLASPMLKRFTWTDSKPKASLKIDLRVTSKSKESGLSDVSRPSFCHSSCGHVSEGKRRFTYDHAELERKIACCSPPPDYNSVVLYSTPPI

[1] = tested on: FLT3 (human), P36888 [ITD]
GAK (human) = GAK (human) (UniProt O14976)
GSK3B (human) = GSK3B (human) (UniProt P49841)
LCK (human) = LCK (human) (UniProt P06239)
LIMK1 (human) = LIMK1 (human) (UniProt P53667)
LTK (human) = LTK (human) (UniProt P29376)
Sequence of LTK (human) (P29376 whole entry, looked up): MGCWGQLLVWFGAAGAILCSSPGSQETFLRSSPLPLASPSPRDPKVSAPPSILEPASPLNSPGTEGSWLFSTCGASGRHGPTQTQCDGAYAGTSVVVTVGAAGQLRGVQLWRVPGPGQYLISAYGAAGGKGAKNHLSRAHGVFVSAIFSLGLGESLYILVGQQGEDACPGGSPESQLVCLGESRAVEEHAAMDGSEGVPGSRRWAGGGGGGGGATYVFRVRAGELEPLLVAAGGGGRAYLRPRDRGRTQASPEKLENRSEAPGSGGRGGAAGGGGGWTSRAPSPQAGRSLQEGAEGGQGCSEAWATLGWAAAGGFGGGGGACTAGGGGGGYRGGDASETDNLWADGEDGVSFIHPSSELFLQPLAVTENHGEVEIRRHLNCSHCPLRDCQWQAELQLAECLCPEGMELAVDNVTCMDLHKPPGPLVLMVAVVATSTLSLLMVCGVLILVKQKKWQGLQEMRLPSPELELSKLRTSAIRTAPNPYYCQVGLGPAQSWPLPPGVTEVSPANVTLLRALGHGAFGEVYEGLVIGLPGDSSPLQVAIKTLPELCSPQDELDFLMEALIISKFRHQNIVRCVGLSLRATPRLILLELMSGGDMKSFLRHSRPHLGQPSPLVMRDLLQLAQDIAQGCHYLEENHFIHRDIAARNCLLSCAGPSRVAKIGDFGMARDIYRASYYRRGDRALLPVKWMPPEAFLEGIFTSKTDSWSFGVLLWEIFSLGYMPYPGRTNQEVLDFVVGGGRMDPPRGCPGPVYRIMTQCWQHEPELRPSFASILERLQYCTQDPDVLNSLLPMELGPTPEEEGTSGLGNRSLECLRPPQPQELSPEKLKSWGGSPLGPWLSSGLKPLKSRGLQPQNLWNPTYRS

LYN (human) = LYN (human) (UniProt P07948)
MAP3K7 (human) = MAP3K7 (human) (UniProt O43318)
MAPK12 (human) = MAPK12 (human) (UniProt P53778)
Sequence of MAPK12 (human) (P53778 whole entry, looked up): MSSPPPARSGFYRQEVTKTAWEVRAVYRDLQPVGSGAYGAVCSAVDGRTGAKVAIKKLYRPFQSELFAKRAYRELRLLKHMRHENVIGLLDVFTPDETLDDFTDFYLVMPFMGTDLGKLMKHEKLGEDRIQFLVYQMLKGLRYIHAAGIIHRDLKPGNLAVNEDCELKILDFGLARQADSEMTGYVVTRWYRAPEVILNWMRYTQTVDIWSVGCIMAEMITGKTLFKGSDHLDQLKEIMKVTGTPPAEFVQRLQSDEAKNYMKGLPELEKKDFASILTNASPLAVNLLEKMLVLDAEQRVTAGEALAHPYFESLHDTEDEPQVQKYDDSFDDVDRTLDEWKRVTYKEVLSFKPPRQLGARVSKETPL

MAPK7 (human) = MAPK7 (human) (UniProt Q13164)
MAPK8 (human) = MAPK8 (human) (UniProt P45983)
MKNK2 (human) = MKNK2 (human) (UniProt Q9HBH9)
NEK2 (human) = NEK2 (human) (UniProt P51955)
NLK (human) = NLK (human) (UniProt Q9UBE8)
NUAK1 (human) = NUAK1 (human) (UniProt O60285)
Sequence of NUAK1 (human) (O60285 whole entry, looked up): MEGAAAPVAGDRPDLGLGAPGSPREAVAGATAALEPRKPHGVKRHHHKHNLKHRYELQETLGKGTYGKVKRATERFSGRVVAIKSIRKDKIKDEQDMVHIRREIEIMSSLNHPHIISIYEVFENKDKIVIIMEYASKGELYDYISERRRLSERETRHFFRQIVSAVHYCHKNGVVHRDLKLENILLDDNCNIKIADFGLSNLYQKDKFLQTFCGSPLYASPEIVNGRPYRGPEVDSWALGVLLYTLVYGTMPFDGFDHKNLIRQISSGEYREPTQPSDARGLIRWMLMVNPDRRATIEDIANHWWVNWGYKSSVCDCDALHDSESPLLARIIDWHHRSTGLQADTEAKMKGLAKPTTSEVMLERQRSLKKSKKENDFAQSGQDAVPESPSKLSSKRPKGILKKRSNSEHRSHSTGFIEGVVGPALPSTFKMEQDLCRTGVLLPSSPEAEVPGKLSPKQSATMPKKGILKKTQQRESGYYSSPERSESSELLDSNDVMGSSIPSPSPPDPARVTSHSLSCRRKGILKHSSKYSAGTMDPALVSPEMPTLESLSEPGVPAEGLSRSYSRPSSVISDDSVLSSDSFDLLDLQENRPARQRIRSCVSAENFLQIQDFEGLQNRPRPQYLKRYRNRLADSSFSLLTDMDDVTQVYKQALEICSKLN

PAK3 (human) = PAK3 (human) (UniProt O75914)
PAK7 (human) = PAK7 (human) (UniProt Q9P286)
PIM1 (human) = PIM1 (human) (UniProt P11309)
PIM2 (human) = PIM2 (human) (UniProt Q9P1W9)
Sequence of PIM2 (human) (Q9P1W9 whole entry, looked up): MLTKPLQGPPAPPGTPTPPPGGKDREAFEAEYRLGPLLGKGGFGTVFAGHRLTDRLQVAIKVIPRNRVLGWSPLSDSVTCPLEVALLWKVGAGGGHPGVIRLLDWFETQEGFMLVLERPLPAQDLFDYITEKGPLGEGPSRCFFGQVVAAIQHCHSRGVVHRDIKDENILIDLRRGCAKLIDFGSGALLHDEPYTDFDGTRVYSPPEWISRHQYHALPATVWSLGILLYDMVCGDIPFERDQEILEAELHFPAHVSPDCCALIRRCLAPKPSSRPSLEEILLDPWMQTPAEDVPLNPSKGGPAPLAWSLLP

PIM3 (human) = PIM3 (human) (UniProt Q86V86)
PKMYT1 (human) = PKMYT1 (human) (UniProt Q99640)
PRKCE (human) = PRKCE (human) (UniProt Q02156)
PRKCH (human) = PRKCH (human) (UniProt P24723)
Sequence of PRKCH (human) (P24723 whole entry, looked up): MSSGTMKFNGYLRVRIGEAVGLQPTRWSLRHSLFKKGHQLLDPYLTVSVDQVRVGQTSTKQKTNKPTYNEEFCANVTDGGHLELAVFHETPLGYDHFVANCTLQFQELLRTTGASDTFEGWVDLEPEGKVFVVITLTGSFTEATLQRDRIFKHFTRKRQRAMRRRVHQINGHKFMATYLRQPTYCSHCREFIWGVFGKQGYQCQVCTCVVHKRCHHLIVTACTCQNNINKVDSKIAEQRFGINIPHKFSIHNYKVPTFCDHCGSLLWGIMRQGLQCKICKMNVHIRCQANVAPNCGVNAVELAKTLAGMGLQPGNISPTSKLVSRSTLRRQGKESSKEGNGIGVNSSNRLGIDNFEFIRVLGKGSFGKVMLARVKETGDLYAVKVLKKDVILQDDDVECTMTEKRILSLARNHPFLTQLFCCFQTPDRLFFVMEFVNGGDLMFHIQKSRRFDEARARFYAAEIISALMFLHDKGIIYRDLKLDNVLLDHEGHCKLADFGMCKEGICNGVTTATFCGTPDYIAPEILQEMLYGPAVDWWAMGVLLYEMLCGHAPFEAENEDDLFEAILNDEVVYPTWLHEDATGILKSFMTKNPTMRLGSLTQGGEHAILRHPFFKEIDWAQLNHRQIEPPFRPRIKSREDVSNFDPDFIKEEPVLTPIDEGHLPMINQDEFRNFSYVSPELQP

PRKG2 (human) = PRKG2 (human) (UniProt Q13237)
PTK2 (human) = PTK2 (human) (UniProt Q05397)
RPS6KA5 KD1 (human) = RPS6KA5 KD1 (human) (UniProt O75582)
STK36 (human) = STK36 (human) (UniProt Q9NRP7)
TAOK1 (human) = TAOK1 (human) (UniProt Q7L7X3)
TEK (human) = TEK (human) (UniProt Q02763)
ULK1 (human) = ULK1 (human) (UniProt O75385)

Sequence of CSNK2A2 (human) (P19784 whole entry, looked up): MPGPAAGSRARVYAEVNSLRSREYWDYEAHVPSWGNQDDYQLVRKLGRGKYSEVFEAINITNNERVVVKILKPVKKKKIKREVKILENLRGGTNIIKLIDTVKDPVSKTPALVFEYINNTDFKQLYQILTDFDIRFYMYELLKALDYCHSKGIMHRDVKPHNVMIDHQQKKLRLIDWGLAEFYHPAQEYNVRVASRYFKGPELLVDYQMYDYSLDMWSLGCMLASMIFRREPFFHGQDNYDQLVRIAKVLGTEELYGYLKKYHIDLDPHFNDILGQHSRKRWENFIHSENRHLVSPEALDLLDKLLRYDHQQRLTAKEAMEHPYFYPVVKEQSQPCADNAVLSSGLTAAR
Sequence of CAMK1D (human) (Q8IU85 whole entry, looked up): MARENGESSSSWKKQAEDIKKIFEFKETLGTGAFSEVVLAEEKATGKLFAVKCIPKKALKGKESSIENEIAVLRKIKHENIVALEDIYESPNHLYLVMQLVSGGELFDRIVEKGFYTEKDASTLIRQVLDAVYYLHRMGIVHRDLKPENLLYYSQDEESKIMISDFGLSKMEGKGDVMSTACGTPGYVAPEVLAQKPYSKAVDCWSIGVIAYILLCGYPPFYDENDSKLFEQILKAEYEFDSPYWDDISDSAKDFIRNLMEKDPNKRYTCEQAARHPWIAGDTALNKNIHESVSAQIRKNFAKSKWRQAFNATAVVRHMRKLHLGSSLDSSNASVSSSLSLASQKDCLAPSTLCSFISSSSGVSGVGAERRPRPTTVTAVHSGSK

COc1cc(N2CCN(C)CC2)ccc1Nc1nc(N)c(C(=O)c2c(Cl)cccc2Cl)s1
kinase still bound, per cent of control (AKT1 (human)): 100%
kinase still bound, per cent of control (CAMK1D (human)): 24%
kinase still bound, per cent of control (CDK17 (human)): 42%
kinase still bound, per cent of control (CSF1R (human)): 67%
kinase still bound, per cent of control (CSNK2A1 (human)): 91%
kinase still bound, per cent of control (CSNK2A2 (human)): 88%
kinase still bound, per cent of control (EPHA8 (human)): 73%
kinase still bound, per cent of control (EPHB1 (human)): 87%
kinase still bound, per cent of control (EPHB4 (human)): 97%
kinase still bound, per cent of control (FES (human)): 45%
kinase still bound, per cent of control (FLT1 (human)): 100%
kinase still bound, per cent of control [1]: 87%
kinase still bound, per cent of control (GAK (human)): 73%
kinase still bound, per cent of control (GSK3B (human)): 100%
kinase still bound, per cent of control (LCK (human)): 86%
kinase still bound, per cent of control (LIMK1 (human)): 74%
kinase still bound, per cent of control (LTK (human)): 4.2%
kinase still bound, per cent of control (LYN (human)): 100%
kinase still bound, per cent of control (MAP3K7 (human)): 78%
kinase still bound, per cent of control (MAPK12 (human)): 100%
kinase still bound, per cent of control (MAPK7 (human)): 14%
kinase still bound, per cent of control (MAPK8 (human)): 81%
kinase still bound, per cent of control (MKNK2 (human)): 77%
kinase still bound, per cent of control (NEK2 (human)): 100%
kinase still bound, per cent of control (NLK (human)): 85%
kinase still bound, per cent of control (NUAK1 (human)): 100%
kinase still bound, per cent of control (PAK3 (human)): 94%
kinase still bound, per cent of control (PAK7 (human)): 63%
kinase still bound, per cent of control (PIM1 (human)): 100%
kinase still bound, per cent of control (PIM2 (human)): 100%
kinase still bound, per cent of control (PIM3 (human)): 100%
kinase still bound, per cent of control (PKMYT1 (human)): 100%
kinase still bound, per cent of control (PRKCE (human)): 68%
kinase still bound, per cent of control (PRKCH (human)): 93%
kinase still bound, per cent of control (PRKG2 (human)): 74%
kinase still bound, per cent of control (PTK2 (human)): 62%
kinase still bound, per cent of control (RPS6KA5 KD1 (human)): 100%
kinase still bound, per cent of control (STK36 (human)): 100%
kinase still bound, per cent of control (TAOK1 (human)): 52%
kinase still bound, per cent of control (TEK (human)): 88%
kinase still bound, per cent of control (ULK1 (human)): 93%

OCCCNc1cc(-c2ccnc(Nc3cccc(Cl)c3)n2)ccn1
kinase still bound, per cent of control (AKT1 (human)): 100%
kinase still bound, per cent of control (CAMK1D (human)): 100%
kinase still bound, per cent of control (CDK17 (human)): 100%
kinase still bound, per cent of control (CSF1R (human)): 100%
kinase still bound, per cent of control (CSNK2A1 (human)): 100%
kinase still bound, per cent of control (CSNK2A2 (human)): 100%
kinase still bound, per cent of control (EPHA8 (human)): 100%
kinase still bound, per cent of control (EPHB1 (human)): 100%
kinase still bound, per cent of control (EPHB4 (human)): 100%
kinase still bound, per cent of control (FES (human)): 100%
kinase still bound, per cent of control (FLT1 (human)): 100%
kinase still bound, per cent of control [1]: 100%
kinase still bound, per cent of control (GAK (human)): 100%
kinase still bound, per cent of control (GSK3B (human)): 100%
kinase still bound, per cent of control (LCK (human)): 100%
kinase still bound, per cent of control (LIMK1 (human)): 100%
kinase still bound, per cent of control (LTK (human)): 100%
kinase still bound, per cent of control (LYN (human)): 100%
kinase still bound, per cent of control (MAP3K7 (human)): 100%
kinase still bound, per cent of control (MAPK12 (human)): 100%
kinase still bound, per cent of control (MAPK7 (human)): 100%
kinase still bound, per cent of control (MAPK8 (human)): 100%
kinase still bound, per cent of control (MKNK2 (human)): 100%
kinase still bound, per cent of control (NEK2 (human)): 100%
kinase still bound, per cent of control (NLK (human)): 100%
kinase still bound, per cent of control (NUAK1 (human)): 100%
kinase still bound, per cent of control (PAK3 (human)): 100%
kinase still bound, per cent of control (PAK7 (human)): 100%
kinase still bound, per cent of control (PIM1 (human)): 100%
kinase still bound, per cent of control (PIM2 (human)): 100%
kinase still bound, per cent of control (PIM3 (human)): 100%
kinase still bound, per cent of control (PKMYT1 (human)): 100%
kinase still bound, per cent of control (PRKCE (human)): 100%
kinase still bound, per cent of control (PRKCH (human)): 100%
kinase still bound, per cent of control (PRKG2 (human)): 100%
kinase still bound, per cent of control (PTK2 (human)): 100%
kinase still bound, per cent of control (RPS6KA5 KD1 (human)): 100%
kinase still bound, per cent of control (STK36 (human)): 100%
kinase still bound, per cent of control (TEK (human)): 100%
kinase still bound, per cent of control (ULK1 (human)): 100%

From the kinase profiling compilation of Christmann-Franck et al. (2016)
